Here are results for one molecule from patent publication US20250057828A1, “COMBINATION OF AN A2-ADRENOCEPTOR SUBTYPE C (ALPHA-2C) ANTAGONIST WITH A NOREPINEPHRINE REUPTAKE INHIBITOR FOR THE TREATMENT OF SLEEP APNEA” (priority 2021, published 2025).

This assay concerns pig model of obstructive sleep apnea (OSA). Briefly: pig model of obstructive sleep apnea (OSA): collapsibility of the upper respiratory tract under negative pressure. The class given is in vivo, German Landrace pigs. Conditions: for Percent pigs without collaps −50 cm H2O, % / Percent pigs without collaps −100 cm H2O, % / Percent pigs without collaps −150 cm H2O, %: R-oxybutynin intravenous bolus 1 mg/kg + infusion 0.275 mg/kg/h for four hours. The source says: The therapeutic potential of the combination of an α2-Adrenoceptor subtype C (alpha-2C) antagonists with a muscarinic receptor antagonist according to the present invention in sleep apnea can be assessed preclinically in a pig model of obstructive sleep apnea (OSA).
Using negative pressure, it is possible to induce collapse and thus obstruction of the upper respiratory tract in anaesthetized, spontaneously breathing pigs (Wirth K. J. et al., Sleep 36(5) (2013) pp. 699-708).
German Landrace pigs are used for the model. The pigs are anaesthetized and tracheotomized. Two tracheal cannulas are inserted into the trachea, one into the rostral part and the other into the caudal part of the trachea. Using a connection piece, the rostral cannula is connected to a tube to the negative pressure device and to the distal tracheal cannula. The distal tracheal cannula is additionally connected to a tube with an open end to atmosphere via a connection piece that served for free tracheal breathing, circumventing the upper airway. By appropriate opening and clamping of those tubes breathing can be switched from nasal breathing to breathing through the caudal tracheal cannula, circumventing the upper airway, and the (isolated) upper airway can be connected to the negative pressure device, causing airflow in the inspiratory direction.
At certain points in time, the collapsibility of the upper respiratory tract is tested by having the pig breathe via the caudal cannula and applying negative pressures of −50, −100 and −150 cm water head (cm H2O) to the upper respiratory tract. This causes the upper respiratory tract to collapse, which manifests itself in an interruption of the airflow and a pressure drop in the tube system. This test is conducted prior to the administration of the test substance and at certain intervals after the administration of the test substance. An appropriately effective test substance can prevent this collapse of the respiratory tract in the inspiratory phase.

Regarding `CCN(CC)CC#CCOC(=O)[C@](O)(c1ccccc1)C1CCCCC1` [R-oxybutynin, R-Oxybutynin], the “upper airway collapsibility at the negative pressure of −50 cm head (cm H2O)” value (R-Oxybutynin intravenous bolus 1 mg/kg + infusion 0,275 mg/kg/h, time point 60 min) is given as “inhibited”. Further, the “Percent pigs without collaps −50 cm H2O, %” value reads like this: (0 min) 0%; (10 min) 0%; (30 min) 0%; (60 min) 100%; (120 min) 0%; (180 min) 0%. Also, the “Percent pigs without collaps −50 cm H2O, %” value (240 min) was 0%. Moreover, the “Percent pigs without collaps −100 cm H2O, %” value is given as 0% (0 min); 0% (10 min); 0% (30 min); 50% (60 min); 0% (120 min); 0% (180 min). In addition, the “Percent pigs without collaps −100 cm H2O, %” value (240 min) amounted to 0%. The “Percent pigs without collaps −150 cm H2O, %” value reads like this: (0 min) 0%; (10 min) 0%; (30 min) 0%; (60 min) 0%; (120 min) 0%; (180 min) 0%. Also, the “Percent pigs without collaps −150 cm H2O, %” value (240 min) worked out at 0%. For the same molecule, where the note is “intravenous bolus 1 mg/kg followed by infusion of 0,275 mg/kg/h for four hours”, the “inhibited upper airway collapsibility at all negative pressures of −50, −100 and −150 cm head (cm H2O) in all pigs” value is on record as “at no time”.
